Reference: US11339171B2, “MDM2 inhibitors” (Gan & Lee Pharmaceuticals, priority 2017, dated 2022)
Values joined by “and” are separate entries in the source; they are usually repeats but may differ in a detail not shown here. Equal values may be shown once. Read-outs that look alike come from different tables or passages of the source.

Key:
[1] = system: human osteosarcoma cell line SJSA-1; assay: Inhibition of proliferation of human osteosarcoma cell line SJSA-1 (DAPI staining, In Cell Analyzer); conditions: Homo sapiens, SJSA-1, 72 h, read-out: IC50 (nM), inhibitory activity on proliferation of human osteosarcoma cell line SJSA-1, SJSA-1, incubated 72 h
[2] = target: T1, MDM2 (Homo sapiens, UniProt Q00987); assay: Inhibition test of MDM2-P53 (GST-MDM2, Biotin-P53, Anti-GST-Tb, SA-XL665); format: binding
T1 construct: made in house
Method in brief: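 Binding was measured by TR-FRET with GST-MDM2 at 4 nM final in PBS with 0.1% BSA, 5 mM DTT and 1 mM AEBSF. Compounds were tested as twelve-point 5-fold dilutions and incubated with the detection mix for 90 min at 25 °C with shaking before plate-reader reading and curve fitting.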

[3] = Pharmacokinetics in ICR mice after intravenous and intragastric administration; format: in vivo; conditions: for MRT last: read-out: MRT(0-t); for MRT inf: read-out: MRT(0-∞); for Tmax: read-out: Tmax; for Vd: read-out: Vz; for half-life: read-out: t1/2 (converted)
Method in brief: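 Male ICR mice (6-9 weeks, 20-30 g, n=3 per route) were fasted overnight and dosed at 2 mg/kg i.v. or 5 mg/kg intragastrically in 5% DMSO/40% PEG400/55% (10% HP-β-CD in saline). Plasma levels were measured by LC-MS/MS after protein precipitation (LLOQ 1 ng/mL), and non-compartmental PK parameters were calculated.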

[4] = ICR mice, IV 2 mg/kg, individual animal, 2 mg/kg
[5] = ICR mice, PO 5 mg/kg, individual animal, 5 mg/kg
[6] = male, ICR, mouse, plasma, iv, 2 mg/kg, ICR mice, IV 2 mg/kg, individual animal
[7] = male, ICR, mouse, plasma, iv, 2 mg/kg, ICR mice, IV 2 mg/kg, mean of 3 animals
[8] = male, ICR, mouse, plasma, po, 5 mg/kg, ICR mice, PO 5 mg/kg, individual animal
[9] = male, ICR, mouse, plasma, po, 5 mg/kg, ICR mice, PO 5 mg/kg, mean of 3 animals

T1 sequence (Q00987 whole entry): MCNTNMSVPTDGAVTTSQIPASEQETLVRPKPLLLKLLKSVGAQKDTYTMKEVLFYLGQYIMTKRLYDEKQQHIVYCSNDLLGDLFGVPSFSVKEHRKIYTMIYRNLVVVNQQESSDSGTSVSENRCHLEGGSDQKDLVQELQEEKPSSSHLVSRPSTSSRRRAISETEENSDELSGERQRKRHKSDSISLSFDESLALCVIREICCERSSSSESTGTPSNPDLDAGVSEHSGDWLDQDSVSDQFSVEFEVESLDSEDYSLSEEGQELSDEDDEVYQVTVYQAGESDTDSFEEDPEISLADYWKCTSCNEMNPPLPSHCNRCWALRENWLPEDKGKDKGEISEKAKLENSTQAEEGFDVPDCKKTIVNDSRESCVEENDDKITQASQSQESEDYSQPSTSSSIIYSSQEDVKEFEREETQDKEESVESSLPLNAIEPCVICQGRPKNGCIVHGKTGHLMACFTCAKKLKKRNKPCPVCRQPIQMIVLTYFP

Compound: COc1cc(OC)c(-c2nc3c(n2C(C)C)[C@@]2(C(=O)Nc4cc(Cl)ccc42)N(c2cc(Cl)ccc2F)C3=O)cn1 [Example S-133, (S)-6-chloro-5′-(5-chloro-2-fluorophenyl)-2′-(4,6-dimethoxypyridin-3-yl)-3′-isopropyl-3′H-spiro[dihydroindole-3,4′-pyrrolo[3,4-d]imidazole]-2,6′(5′H)-dione]
- IC50 [1]: 99.8 nM
- IC50 [2]: 1.41 nM
- AUC(0-t) [3, 4]: 3187.22 ng·h/mL and 2904.29 ng·h/mL
- AUC(0-∞) [3, 4]: 3247.82 ng·h/mL and 3022.24 ng·h/mL
- CL [3, 4]: 10.26 mL/min/kg and 11.03 mL/min/kg
- Cmax [3, 4]: 2521.09 ng/mL and 2055.95 ng/mL
- MRT(0-t) [3, 4]: 1.05 h and 1.20 h
- MRT(0-∞) [3, 4]: 1.17 h and 1.45 h
- Vz [3, 4]: 1.01 L/kg and 1.16 L/kg
- t1/2 [3, 4]: 1.13 h and 1.22 h
- AUC(0-t) [3, 5]: 4282.62 ng·h/mL and 5953.82 ng·h/mL
- AUC(0-∞) [3, 5]: 4314.80 ng·h/mL and 5994.87 ng·h/mL
- Cmax [3, 5]: 1489.30 ng/mL and 2195.02 ng/mL
- MRT(0-t) [3, 5]: 2.17 h and 2.05 h
- MRT(0-∞) [3, 5]: 2.22 h and 2.10 h
- t1/2 [3, 5]: 1.05 h and 1.04 h
- AUC(0-inf) [3, 6]: 4700 ng·h/mL
- clearance [3, 6]: 7.09 mL/min/kg
- AUC(0-t) ([3]; male, ICR, mouse, plasma, iv, 2 mg/kg, ICR mice, IV 2 mg/kg, individual animal, read-out: AUC(0-t)): 4600 ng·h/mL
- Cmax ([3]; male, ICR, mouse, plasma, iv, 2 mg/kg, ICR mice, IV 2 mg/kg, individual animal, read-out: Cmax): 2980 ng/mL
- MRT last [3, 6]: 1.18 h
- MRT inf [3, 6]: 1.31 h
- Tmax [3, 6]: 0.08 h
- Vd [3, 6]: 0.66 L/kg
- half-life [3, 6]: 1.07 h
- AUC(0-inf) [3, 7]: 3660 ng·h/mL
- clearance [3, 7]: 9.46 mL/min/kg
- AUC(0-t) ([3]; male, ICR, mouse, plasma, iv, 2 mg/kg, ICR mice, IV 2 mg/kg, mean of 3 animals, read-out: AUC(0-t)): 3560 ng·h/mL
- Cmax ([3]; male, ICR, mouse, plasma, iv, 2 mg/kg, ICR mice, IV 2 mg/kg, mean of 3 animals, read-out: Cmax): 2520 ng/mL
- MRT last [3, 7]: 1.14 h
- MRT inf [3, 7]: 1.31 h
- Tmax [3, 7]: 0.083 h
- Vd [3, 7]: 0.94 L/kg
- half-life [3, 7]: 1.14 h
- AUC(0-inf) [3, 8]: 6150 ng·h/mL
- AUC(0-t) ([3]; male, ICR, mouse, plasma, po, 5 mg/kg, ICR mice, PO 5 mg/kg, individual animal, read-out: AUC(0-t)): 6070 ng·h/mL
- Cmax ([3]; male, ICR, mouse, plasma, po, 5 mg/kg, ICR mice, PO 5 mg/kg, individual animal, read-out: Cmax): 1570 ng/mL
- MRT last [3, 8]: 2.34 h
- MRT inf [3, 8]: 2.43 h
- Tmax [3, 8]: 1 h
- half-life [3, 8]: 1.15 h
- AUC(0-inf) [3, 9]: 5490 ng·h/mL
- AUC(0-t) ([3]; male, ICR, mouse, plasma, po, 5 mg/kg, ICR mice, PO 5 mg/kg, mean of 3 animals, read-out: AUC(0-t)): 5440 ng·h/mL
- Cmax ([3]; male, ICR, mouse, plasma, po, 5 mg/kg, ICR mice, PO 5 mg/kg, mean of 3 animals, read-out: Cmax): 1750 ng/mL
- MRT last [3, 9]: 2.19 h
- MRT inf [3, 9]: 2.25 h
- Tmax [3, 9]: 1 h
- half-life [3, 9]: 1.08 h
- AUC(0-t) ([3]; male, ICR, mouse, plasma, po, 5 mg/kg, oral intragastric administration 5 mg/kg, read-out: AUC0-t): 5440 ng·h/mL
- bioavailability ([3]; male, mouse, plasma, ICR mice, PO 5 mg/kg vs IV 2 mg/kg, from mean values, read-out: F* (bioavailability)): 61%
